Data: publication PMC9842534 (European Journal of Medicinal Chemistry, 2023)
Where a SMILES comes first, the peptide text is derived from it. Bridges are numbered along the chain shown (N, C = ends). [ ]: non-standard residue; d: D form. S5 = C=CCCC[C@](C)(N)C(=O)O

Molecular target: SARS-CoV-2 Spike RBD-ACE2 interaction (Severe acute respiratory syndrome coronavirus 2, UniProt P0DTC2)
Assay type: binding, SARS-CoV-2 / human

SMILES: CC(C)C[C@@H]1NC(=O)[C@H](CC(=O)O)NC(=O)[C@H](CCC(=O)O)NC(=O)[C@@](C)(NC(=O)[C@H](CCC(=O)O)NC(=O)[C@@H](N)Cc2c[nH]cn2)CCC/C=C\CCC[C@@](C)(C(=O)N[C@@H](Cc2ccc(O)cc2)C(=O)N[C@@H](CCC(N)=O)C(N)=O)NC1=O [Compound 6] (H-HE[S5]EDL[S5]YQ-NH2; staple (Z) 3-7; N-terminus and C-terminus assumed)
- inhibition of the spike RBD-ACE2 interaction (in words): significant inhibitory activity
